Here are results for twelve compounds from US20260242419A1, “A CYCLIC PEPTIDE FOR TRAPPING INTERLEUKIN-1 BETA” (Merck Sharp & Dohme LLC, priority 2023, published 2026).

The structures appear in SMILES notation. Non-standard residues stand in square brackets, D forms with d. Residues, ends and D or L forms follow the SMILES beside them. Phe(4-(5-CO2H-2-pyrimidyl)) = N[C@@H](Cc1ccc(-c2ncc(C(=O)O)cn2)cc1)C(=O)O; Phe(4-(4-Ac-piperazinyl)) = CC(=O)N1CCN(c2ccc(C[C@H](N)C(=O)O)cc2)CC1; Trp(4-Cl)(βS-Me) = C[C@@H](c1c[nH]c2cccc(Cl)c12)[C@H](N)C(=O)O; dPro(4R-(4-pyridylmethyl)) = O=C(O)[C@H]1C[C@@H](Cc2ccncc2)CN1; Trp(βS-Me,4-F) = C[C@@H](c1c[nH]c2cccc(F)c12)[C@H](N)C(=O)O; Bip(4'-COOH) = N[C@@H](Cc1ccc(-c2ccc(C(=O)O)cc2)cc1)C(=O)O; Ala(1-bicyclo(1.1.1)pentyl) = N[C@@H](CC12CC(C1)C2)C(=O)O; Phe(2-Cl,4-COOH) = N[C@@H](Cc1ccc(C(=O)O)cc1Cl)C(=O)O; 1Nal(3S-Me) = C[C@@H](c1cccc2ccccc12)[C@H](N)C(=O)O; Ala(pyrimidin-5-yl) = N[C@@H](Cc1cncnc1)C(=O)O; Phe(4-COOH) = N[C@@H](Cc1ccc(C(=O)O)cc1)C(=O)O; Pro(cis-4-F) = O=C(O)[C@@H]1C[C@H](F)CN1; Ala(4-THP) = N[C@@H](CC1CCOCC1)C(=O)O; d(αMeD) = C[C@@](N)(CC(=O)O)C(=O)O; 4Pal = N[C@@H](Cc1ccncc1)C(=O)O; aThr = C[C@H](O)[C@H](N)C(=O)O; d(αMeS) = C[C@@](N)(CO)C(=O)O; Cba = N[C@@H](CC1CCC1)C(=O)O; Dab = NCC[C@H](N)C(=O)O; Aib = CC(C)(N)C(=O)O

T1 sequence (P01584 117-269): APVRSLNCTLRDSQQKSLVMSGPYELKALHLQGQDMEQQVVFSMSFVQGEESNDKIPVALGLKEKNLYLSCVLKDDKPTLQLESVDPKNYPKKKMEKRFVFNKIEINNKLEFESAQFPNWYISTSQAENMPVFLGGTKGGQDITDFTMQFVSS

This assay concerns the target T1, IL-1β (Homo sapiens, UniProt P01584).
T1 construct: purchased BioLegend 579404
As to the kind of experiment: IL-6 assay in MRC5 cells: inhibition of IL-1β induced IL-6 secretion (AlphaLISA). The format is cell-based. The settings on record: inhibition of IL-1β induced IL-6 secretion in MRC5 cells; read-out: MRC5 IC50. The method, boiled down:
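Compound was pre-incubated 1 h at ambient temperature with recombinant human IL-1β at 2λ EC80 before adding human lung fibroblast MRC5 cells (3000/well) in EMEM with 0.025% BSA. After overnight culture at 37 °C, 5% CO2, secreted IL-6 in conditioned medium was measured by AlphaLISA; IC50 from 4-parameter logistic fits.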
Background: Alpha assays give light when donor and acceptor beads are brought close together.
For the compound `CC(C)C[C@@H]1NC(=O)[C@@](C)(CO)NC(=O)[C@H](Cc2c[nH]c3ccccc23)NC(=O)[C@H](CO)NC(=O)C(C)(C)NC(=O)[C@H]([C@@H](C)c2c[nH]c3cccc(F)c23)NC(=O)[C@@H]2C[C@H](F)CN2C(=O)CNC(=O)[C@H](Cc2ccc(C(=O)O)cc2)NC(=O)[C@H](Cc2ccncc2)NC(=O)[C@H](Cc2ccc(-c3ccc(C(=O)O)cc3)cc2)NC(=O)[C@H]2C[C@@H](Cc3ccncc3)CN2C(=O)CNC(=O)[C@H](CCN)NC(=O)[C@H](CCC(N)=O)NC1=O` [Example 347] (cyclo([Bip(4'-COOH)][4Pal][Phe(4-COOH)]G[Pro(cis-4-F)][Trp(βS-Me,4-F)][Aib]SW[d(αMeS)]LQ[Dab]G[dPro(4R-(4-pyridylmethyl))])), the IC50 – broadly, the midpoint of a concentration-inhibition curve – was determined as 0.025 nM.
In the case of `C[C@@H](c1c[nH]c2cccc(F)c12)[C@@H]1NC(=O)[C@@H]2C[C@H](F)CN2C(=O)CNC(=O)[C@H](Cc2ccc(C(=O)O)cc2)NC(=O)[C@H](CC23CC(C2)C3)NC(=O)[C@H](Cc2ccc(-c3ccc(C(=O)O)cc3)cc2)NC(=O)[C@H]2C[C@@H](Cc3ccncc3)CN2C(=O)CNC(=O)[C@H](CCN)NC(=O)[C@H](CCC(N)=O)NC(=O)[C@H](CC2CCC2)NC(=O)[C@@](C)(CC(=O)O)NC(=O)[C@H](Cc2c[nH]c3ccccc23)NC(=O)[C@H](CO)NC(=O)C(C)(C)NC1=O` [Example 348] (cyclo([Bip(4'-COOH)][Ala(1-bicyclo(1.1.1)pentyl)][Phe(4-COOH)]G[Pro(cis-4-F)][Trp(βS-Me,4-F)][Aib]SW[d(αMeD)][Cba]Q[Dab]G[dPro(4R-(4-pyridylmethyl))])), the IC50 was found to be 0.018 nM.
`CC(C)C[C@@H]1NC(=O)[C@@](C)(CC(=O)O)NC(=O)[C@H](Cc2c[nH]c3ccccc23)NC(=O)[C@H](CO)NC(=O)C(C)(C)NC(=O)[C@H]([C@@H](C)c2c[nH]c3cccc(F)c23)NC(=O)[C@@H]2C[C@H](F)CN2C(=O)CNC(=O)[C@H](Cc2ccc(C(=O)O)cc2)NC(=O)[C@H](CC23CC(C2)C3)NC(=O)[C@H](Cc2ccc(-c3ccc(C(=O)O)cc3)cc2)NC(=O)[C@H]2C[C@@H](Cc3ccncc3)CN2C(=O)CNC(=O)[C@H](CCN)NC(=O)[C@H](CCC(N)=O)NC1=O` [Example 349] (cyclo([Bip(4'-COOH)][Ala(1-bicyclo(1.1.1)pentyl)][Phe(4-COOH)]G[Pro(cis-4-F)][Trp(βS-Me,4-F)][Aib]SW[d(αMeD)]LQ[Dab]G[dPro(4R-(4-pyridylmethyl))])): the half-maximal inhibitory concentration (IC50) came out at 0.017 nM.
For the compound `CC(=O)N1CCN(c2ccc(C[C@@H]3NC(=O)[C@H]4C[C@@H](Cc5ccncc5)CN4C(=O)CNC(=O)[C@H](CCN)NC(=O)[C@H](CCC(N)=O)NC(=O)[C@H](Cc4cncnc4)NC(=O)[C@@](C)(CO)NC(=O)[C@H](Cc4c[nH]c5ccccc45)NC(=O)[C@H](CO)NC(=O)C(C)(C)NC(=O)[C@H]([C@@H](C)c4c[nH]c5cccc(F)c45)NC(=O)[C@@H]4C[C@H](F)CN4C(=O)CNC(=O)[C@H](Cc4ccc(C(=O)O)cc4)NC(=O)[C@H](Cc4ccncc4)NC3=O)cc2)CC1` [Example 350] (cyclo([Phe(4-(4-Ac-piperazinyl))][4Pal][Phe(4-COOH)]G[Pro(cis-4-F)][Trp(βS-Me,4-F)][Aib]SW[d(αMeS)][Ala(pyrimidin-5-yl)]Q[Dab]G[dPro(4R-(4-pyridylmethyl))])), the IC50 was 0.02 nM.
Consider `C[C@@H](c1c[nH]c2cccc(F)c12)[C@@H]1NC(=O)[C@@H]2C[C@H](F)CN2C(=O)CNC(=O)[C@H](Cc2ccc(C(=O)O)cc2)NC(=O)[C@H](Cc2ccncc2)NC(=O)[C@H](Cc2ccc(-c3ncc(C(=O)O)cn3)cc2)NC(=O)[C@H]2C[C@@H](Cc3ccncc3)CN2C(=O)CNC(=O)[C@H](CCN)NC(=O)[C@H](CCC(N)=O)NC(=O)[C@H](CC2CCOCC2)NC(=O)[C@@](C)(CC(=O)O)NC(=O)[C@H](Cc2c[nH]c3ccccc23)NC(=O)[C@H](CO)NC(=O)C(C)(C)NC1=O` [Example 351] (cyclo([Phe(4-(5-CO2H-2-pyrimidyl))][4Pal][Phe(4-COOH)]G[Pro(cis-4-F)][Trp(βS-Me,4-F)][Aib]SW[d(αMeD)][Ala(4-THP)]Q[Dab]G[dPro(4R-(4-pyridylmethyl))])), for which the concentration for half-maximal inhibition (IC50) is 0.016 nM.
Turning to `C[C@H](O)[C@@H]1NC(=O)C(C)(C)NC(=O)[C@H]([C@@H](C)c2c[nH]c3cccc(F)c23)NC(=O)[C@@H]2C[C@H](F)CN2C(=O)CNC(=O)[C@H](Cc2ccc(C(=O)O)cc2)NC(=O)[C@H](Cc2ccncc2)NC(=O)[C@H](Cc2ccc(-c3ccc(C(=O)O)cc3)cc2)NC(=O)[C@H]2C[C@@H](Cc3ccncc3)CN2C(=O)CNC(=O)[C@H](CCN)NC(=O)[C@H](CCC(N)=O)NC(=O)[C@H]([C@H](C)O)NC(=O)[C@@](C)(CO)NC(=O)[C@H](Cc2c[nH]c3ccccc23)NC1=O` [Example 352] (cyclo([Bip(4'-COOH)][4Pal][Phe(4-COOH)]G[Pro(cis-4-F)][Trp(βS-Me,4-F)][Aib][aThr]W[d(αMeS)][aThr]Q[Dab]G[dPro(4R-(4-pyridylmethyl))])), the 50% inhibitory concentration (IC50) is 0.023 nM.
With `C[C@H](O)[C@@H]1NC(=O)C(C)(C)NC(=O)[C@H]([C@@H](C)c2c[nH]c3cccc(F)c23)NC(=O)[C@@H]2C[C@H](F)CN2C(=O)CNC(=O)[C@H](Cc2ccc(C(=O)O)cc2)NC(=O)[C@H](Cc2ccncc2)NC(=O)[C@H](Cc2ccc(-c3ccc(C(=O)O)cc3)cc2)NC(=O)[C@H]2C[C@@H](Cc3ccncc3)CN2C(=O)CNC(=O)[C@H](CCN)NC(=O)[C@H](CCC(N)=O)NC(=O)[C@H](CC2CCOCC2)NC(=O)[C@@](C)(CC(=O)O)NC(=O)[C@H](Cc2c[nH]c3ccccc23)NC1=O` [Example 353] (cyclo([Bip(4'-COOH)][4Pal][Phe(4-COOH)]G[Pro(cis-4-F)][Trp(βS-Me,4-F)][Aib][aThr]W[d(αMeD)][Ala(4-THP)]Q[Dab]G[dPro(4R-(4-pyridylmethyl))])), the IC50 stood at 0.017 nM.
Regarding `C[C@H](O)[C@@H]1NC(=O)[C@@](C)(CC(=O)O)NC(=O)[C@H](Cc2c[nH]c3ccccc23)NC(=O)[C@H](CO)NC(=O)C(C)(C)NC(=O)[C@H]([C@@H](C)c2cccc3ccccc23)NC(=O)[C@@H]2C[C@H](F)CN2C(=O)CNC(=O)[C@H](Cc2ccc(C(=O)O)cc2Cl)NC(=O)[C@H](Cc2ccncc2)NC(=O)[C@H](Cc2ccc(-c3ccc(C(=O)O)cc3)cc2)NC(=O)[C@H]2C[C@@H](Cc3ccncc3)CN2C(=O)CNC(=O)[C@H](CCN)NC(=O)[C@H](CCC(N)=O)NC1=O` [Example 354] (cyclo([Bip(4'-COOH)][4Pal][Phe(2-Cl,4-COOH)]G[Pro(cis-4-F)][1Nal(3S-Me)][Aib]SW[d(αMeD)][aThr]Q[Dab]G[dPro(4R-(4-pyridylmethyl))])), the 50% inhibitory concentration (IC50) was determined as 0.014 nM.
The value for `C[C@H](O)[C@@H]1NC(=O)[C@@](C)(CC(=O)O)NC(=O)[C@H](Cc2c[nH]c3ccccc23)NC(=O)[C@H](CO)NC(=O)C(C)(C)NC(=O)[C@H]([C@@H](C)c2c[nH]c3cccc(Cl)c23)NC(=O)[C@@H]2C[C@H](F)CN2C(=O)CNC(=O)[C@H](Cc2ccc(C(=O)O)cc2Cl)NC(=O)[C@H](Cc2ccncc2)NC(=O)[C@H](Cc2ccc(-c3ccc(C(=O)O)cc3)cc2)NC(=O)[C@H]2C[C@@H](Cc3ccncc3)CN2C(=O)CNC(=O)[C@H](CCN)NC(=O)[C@H](CCC(N)=O)NC1=O` [Example 355] (cyclo([Bip(4'-COOH)][4Pal][Phe(2-Cl,4-COOH)]G[Pro(cis-4-F)][Trp(4-Cl)(βS-Me)][Aib]SW[d(αMeD)][aThr]Q[Dab]G[dPro(4R-(4-pyridylmethyl))])) was 0.013 nM; that for `C[C@H](O)[C@@H]1NC(=O)[C@@](C)(CC(=O)O)NC(=O)[C@H](Cc2c[nH]c3ccccc23)NC(=O)[C@H](CO)NC(=O)C(C)(C)NC(=O)[C@H]([C@@H](C)c2c[nH]c3cccc(F)c23)NC(=O)[C@@H]2C[C@H](F)CN2C(=O)CNC(=O)[C@H](Cc2ccc(C(=O)O)cc2Cl)NC(=O)[C@H](Cc2ccncc2)NC(=O)[C@H](Cc2ccc(-c3ccc(C(=O)O)cc3)cc2)NC(=O)[C@H]2C[C@@H](Cc3ccncc3)CN2C(=O)CNC(=O)[C@H](CCN)NC(=O)[C@H](CCC(N)=O)NC1=O` [Example 356] (cyclo([Bip(4'-COOH)][4Pal][Phe(2-Cl,4-COOH)]G[Pro(cis-4-F)][Trp(βS-Me,4-F)][Aib]SW[d(αMeD)][aThr]Q[Dab]G[dPro(4R-(4-pyridylmethyl))])) was 0.011 nM.
For `C[C@H](O)[C@@H]1NC(=O)[C@@](C)(CC(=O)O)NC(=O)[C@H](Cc2c[nH]c3ccccc23)NC(=O)[C@H](CO)NC(=O)C(C)(C)NC(=O)[C@H]([C@@H](C)c2cccc3ccccc23)NC(=O)[C@@H]2C[C@H](F)CN2C(=O)CNC(=O)[C@H](Cc2ccc(C(=O)O)cc2)NC(=O)[C@H](Cc2ccncc2)NC(=O)[C@H](Cc2ccc(-c3ccc(C(=O)O)cc3)cc2)NC(=O)[C@H]2C[C@@H](Cc3ccncc3)CN2C(=O)CNC(=O)[C@H](CCN)NC(=O)[C@H](CCC(N)=O)NC1=O` [Example 357] (cyclo([Bip(4'-COOH)][4Pal][Phe(4-COOH)]G[Pro(cis-4-F)][1Nal(3S-Me)][Aib]SW[d(αMeD)][aThr]Q[Dab]G[dPro(4R-(4-pyridylmethyl))])), the IC50 is 0.017 nM.
Regarding `C[C@H](O)[C@@H]1NC(=O)[C@@](C)(CC(=O)O)NC(=O)[C@H](Cc2c[nH]c3ccccc23)NC(=O)[C@H](CO)NC(=O)C(C)(C)NC(=O)[C@H]([C@@H](C)c2c[nH]c3cccc(Cl)c23)NC(=O)[C@@H]2C[C@H](F)CN2C(=O)CNC(=O)[C@H](Cc2ccc(C(=O)O)cc2)NC(=O)[C@H](Cc2ccncc2)NC(=O)[C@H](Cc2ccc(-c3ccc(C(=O)O)cc3)cc2)NC(=O)[C@H]2C[C@@H](Cc3ccncc3)CN2C(=O)CNC(=O)[C@H](CCN)NC(=O)[C@H](CCC(N)=O)NC1=O` [Example 358] (cyclo([Bip(4'-COOH)][4Pal][Phe(4-COOH)]G[Pro(cis-4-F)][Trp(4-Cl)(βS-Me)][Aib]SW[d(αMeD)][aThr]Q[Dab]G[dPro(4R-(4-pyridylmethyl))])), the IC50 turned out to be 0.013 nM.
